Assay results from patent US10793553B2, “TLR7/8 antagonists and uses thereof” (Merck Patent GmbH, priority 2017, dated 2020).
Counter-ions that a name gives are not always drawn.

Key:
[1] = target: T1, TLR8 (Homo sapiens, UniProt Q9NR97); experiment: HEK TLR8 Cell Assay; type: cell-based; details: TLR8/NFKb HEK cells, R848 agonist 30 uM final, Steady-Glo readout
T1 construct: expressed in transfected cells; host or cells: HEK cells carrying TLR8 and an NFkB luciferase reporter
T1 sequence (Q9NR97 27-1041): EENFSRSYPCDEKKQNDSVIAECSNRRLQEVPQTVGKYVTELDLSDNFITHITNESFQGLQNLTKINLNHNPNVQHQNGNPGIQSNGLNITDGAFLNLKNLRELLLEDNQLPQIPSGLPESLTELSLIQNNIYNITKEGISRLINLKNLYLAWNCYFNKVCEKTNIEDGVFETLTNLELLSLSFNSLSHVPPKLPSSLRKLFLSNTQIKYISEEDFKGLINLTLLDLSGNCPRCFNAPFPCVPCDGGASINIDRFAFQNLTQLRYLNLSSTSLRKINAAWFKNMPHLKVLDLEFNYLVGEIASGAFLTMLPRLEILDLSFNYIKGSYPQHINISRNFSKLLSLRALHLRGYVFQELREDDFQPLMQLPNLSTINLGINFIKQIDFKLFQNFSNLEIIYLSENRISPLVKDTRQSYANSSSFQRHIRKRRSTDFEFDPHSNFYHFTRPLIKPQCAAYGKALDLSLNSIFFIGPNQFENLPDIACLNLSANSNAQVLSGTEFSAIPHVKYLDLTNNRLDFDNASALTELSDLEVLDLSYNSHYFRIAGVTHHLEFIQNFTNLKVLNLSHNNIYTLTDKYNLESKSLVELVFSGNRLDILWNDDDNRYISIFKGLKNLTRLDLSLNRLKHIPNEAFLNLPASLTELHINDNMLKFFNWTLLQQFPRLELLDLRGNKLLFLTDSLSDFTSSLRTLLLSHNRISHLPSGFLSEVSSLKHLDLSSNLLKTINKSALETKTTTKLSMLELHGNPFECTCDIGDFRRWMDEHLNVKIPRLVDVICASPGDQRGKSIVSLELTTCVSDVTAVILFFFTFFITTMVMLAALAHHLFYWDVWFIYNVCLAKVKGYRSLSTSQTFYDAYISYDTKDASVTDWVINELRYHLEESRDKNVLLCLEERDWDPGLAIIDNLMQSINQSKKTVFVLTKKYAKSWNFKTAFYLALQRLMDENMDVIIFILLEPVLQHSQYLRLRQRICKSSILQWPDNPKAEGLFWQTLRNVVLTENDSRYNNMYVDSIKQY
Experimental: Example 25: HEK TLR8 Cell Assay
(§1) Into 384 CulturePlates (Corning 3707) was placed 5000 c/w of TLR8/NFKb HEK cells in 30 uL DMEM without Phenol red (gibco #31053) and 10% FCS-HI, 2 mM L-Glutamine, 1% Pen/Strept. The cells are incubated for 24 h at 37 degrees Celsius, and 10% carbon dioxide. Dispense 3 uL of controls, standards, and compounds to wells, incubate for 30 min then add 3 uL of R848 (30 uM final concentration) agonist in 20 mM Hepes. Incubate for 5 hours and then allow to stand at room temperature for 15 min. Add 10 uL of Steady-Glo substrate reagent and shake assay plate for 5 min at 1500 rpm. Let the assay plate sit for 30 min at room temperature and then read plate on EnVision.

[2] = target: T2, TLR7 (Homo sapiens, UniProt Q9NYK1); experiment: HEK TLR7 Cell Assay; type: cell-based; details: TLR7/NFKb HEK cells, R848 agonist 10 uM final, Steady-Glo readout
T2 construct: expressed in transfected cells; host or cells: HEK cells carrying TLR7 and an NFkB luciferase reporter
T2 sequence (Q9NYK1 27-1049): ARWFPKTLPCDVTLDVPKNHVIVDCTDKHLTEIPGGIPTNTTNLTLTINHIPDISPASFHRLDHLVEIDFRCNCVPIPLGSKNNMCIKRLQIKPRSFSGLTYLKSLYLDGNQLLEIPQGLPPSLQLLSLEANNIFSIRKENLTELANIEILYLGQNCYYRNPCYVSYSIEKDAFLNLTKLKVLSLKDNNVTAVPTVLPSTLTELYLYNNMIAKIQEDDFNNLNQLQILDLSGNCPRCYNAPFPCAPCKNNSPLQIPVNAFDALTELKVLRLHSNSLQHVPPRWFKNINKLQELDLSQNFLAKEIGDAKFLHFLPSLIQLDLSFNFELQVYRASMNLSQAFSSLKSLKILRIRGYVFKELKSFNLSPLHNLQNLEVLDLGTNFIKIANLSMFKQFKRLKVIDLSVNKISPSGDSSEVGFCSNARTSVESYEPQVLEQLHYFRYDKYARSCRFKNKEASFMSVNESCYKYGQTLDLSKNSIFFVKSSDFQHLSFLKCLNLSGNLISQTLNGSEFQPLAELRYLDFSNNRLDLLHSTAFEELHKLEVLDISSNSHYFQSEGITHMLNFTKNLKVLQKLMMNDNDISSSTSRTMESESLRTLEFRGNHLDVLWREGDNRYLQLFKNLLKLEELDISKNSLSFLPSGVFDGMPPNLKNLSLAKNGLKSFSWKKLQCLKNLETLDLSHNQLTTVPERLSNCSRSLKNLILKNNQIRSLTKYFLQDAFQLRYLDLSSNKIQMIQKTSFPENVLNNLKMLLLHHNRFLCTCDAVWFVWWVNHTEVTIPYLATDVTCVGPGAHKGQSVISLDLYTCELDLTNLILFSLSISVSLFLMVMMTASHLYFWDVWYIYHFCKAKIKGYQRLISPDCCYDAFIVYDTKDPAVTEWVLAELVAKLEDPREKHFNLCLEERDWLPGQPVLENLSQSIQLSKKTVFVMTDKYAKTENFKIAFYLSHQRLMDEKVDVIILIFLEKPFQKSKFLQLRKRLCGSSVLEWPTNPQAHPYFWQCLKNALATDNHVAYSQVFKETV
Experimental: Example 24: HEK TLR7 Cell Assay
as §1, with “TLR7/NFKb” for “TLR8/NFKb”, “(10” for “(30”

| Structure (SMILES) | IC50 [1] [µM] | IC50 [2] [µM] |
| --- | --- | --- |
| C[C@@H]1CN(c2ccc(C(F)(F)F)c3ncccc23)C[C@@H]1NC(=O)CC1CCCN(C)C1 (single isomer, unassigned) [Compound 19] | < 1 | < 1 |
| C[C@@H]1CN(c2ccc(C#N)c3nccnc23)C[C@@H]1NC(=O)CN1CCOCC1 [Compound 7, N-[(3R,4R)-1-(8-cyanoquinoxalin-5-yl)-4-methylpyrrolidin-3-yl]-2-(morpholin-4-yl)acetamide] | 1 to 10 | 1 to 10 |
| Cc1ccc(N2C[C@@H](C)[C@@H](NC(=O)[C@H](O)C(C)C)C2)c2cccnc12 [Compound 48, (2R)-2-hydroxy-3-methyl-N-[(3R,4R)-4-methyl-1-(8-methylquinolin-5-yl)pyrrolidin-3-yl]butanamide] | > 10 | > 10 |
| C[C@@H]1CN(c2ccc(C(F)(F)F)c3ncccc23)C[C@@H]1NC(=O)C(O)C1CC1 (single isomer, unassigned) [Compound 30] | 1 to 10 | 1 to 10 |
| Cc1ccc(N2C[C@@H](C)[C@@H](NC(=O)CC3CCN(C)CC3(F)F)C2)c2cccnc12 (single isomer, unassigned) [Compound 44] | 1 to 10 | 1 to 10 |
| Cc1ccc(N2C[C@@H](C)[C@@H](NC(=O)CC3CCN(C)C3)C2)c2cccnc12 (single isomer, unassigned) [Compound 38] | 1 to 10 | < 1 |
| C[C@@H]1CN(c2ccc(C(F)(F)F)c3ncccc23)C[C@@H]1NC(=O)CC1CCN(C)CC1 [Compound 18, N-[(3R,4R)-4-methyl-1-[8-(trifluoromethyl)quinolin-5-yl]pyrrolidin-3-yl]-2-(1-methylpiperidin-4-yl)acetamide] | < 1 | < 1 |
| C[C@@H]1CN(c2ccc(C(F)(F)F)c3ncccc23)C[C@@H]1NC(=O)CC1(C)CCN(C)CC1 [Compound 24, 2-(1,4-dimethylpiperidin-4-yl)-N-[(3R,4R)-4-methyl-1-[8-(trifluoromethyl)quinolin-5-yl]pyrrolidin-3-yl]acetamide] | < 1 | < 1 |
| C[C@@H]1CN(c2ccc(C(F)(F)F)c3ncccc23)C[C@@H]1NC(=O)CC1(F)CCNCC1 [Compound 25, 2-(4-fluoropiperidin-4-yl)-N-[(3R,4R)-4-methyl-1-[8-(trifluoromethyl)quinolin-5-yl]pyrrolidin-3-yl]acetamide] | < 1 | < 1 |
| Cc1ncc(N2C[C@@H](C)[C@@H](NC(=O)CC3CN(C)C3)C2)c2cccnc12 [Compound 53, 2-(1-methyl-azetidin-3-yl)-N-[(3R,4R)-4-methyl-1-(8-methyl-[1,7]naphthyridin-5-yl)-pyrrolidin-3-yl]-acetamide] | > 10 | 1 to 10 |
| Cc1ncc(N2C[C@@H](C)[C@@H](N)C2)c2cccnc12 [Compound 51, (3R,4R)-4-methyl-1-(8-methyl-[1,7]naphthyridin-5-yl)-pyrrolidin-3-ylamine hydrochloride] | > 10 | 1 to 10 |
| CCN(CC)CCNC(=O)C1CCN(c2ccnc3nccnc23)C1 (stereo not drawn) [Compound 54, 1-pyrido[2,3-b]pyrazin-8-yl-pyrrolidine-3-carboxylic acid (2-diethylamino-ethyl)-amide] | > 10 | > 10 |
| Cc1ccc(N2C[C@@H](C)[C@@H](NC(=O)C(O)C3CC3)C2)c2cccnc12 (single isomer, unassigned) [Compound 46] | > 10 | 1 to 10 |
| C[C@@H]1CN(c2ccc(C#N)c3nccnc23)C[C@@H]1NC(=O)CC1CCN(C)CC1 [Compound 2, N-[(3R,4R)-1-(8-cyanoquinoxalin-5-yl)-4-methylpyrrolidin-3-yl]-2-(1-methylpiperidin-4-yl)acetamide] | < 1 | < 1 |
| CC(C)[C@@H](O)C(=O)N[C@H]1CN(c2ccc(C#N)c3nccnc23)C[C@H]1C [Compound 16, (2R)—N-[(3R,4R)-1-(8-cyanoquinoxalin-5-yl)-4-methylpyrrolidin-3-yl]-2-hydroxy-3-methylbutanamide] | 1 to 10 | 1 to 10 |
